{"source": "patent US9018214B2", "about": "“Bicyclic heterocycle compounds and their uses in therapy” (Astex Therapeutics Limited, priority 2011, dated 2015)", "key": {"[1]": {"test_system": "EVSA-T (human breast carcinoma)", "experiment": "Anti-proliferative activity, Alamar Blue assay, EVSA-T", "assay_type": "cell-based", "settings": "for EC50 / inhibition at 10 µM: Homo sapiens; for inhibition at 10 µM: read-out: EVSA-T prolif: % inhibition"}, "[2]": {"target": "BIR3 domain of human XIAP (residues 252-350) (Homo sapiens (Human), UniProt P98170)", "experiment": "XIAP in vitro competitive displacement binding assay (fluorescence polarization)", "settings": "for IC50: read-out: IC50 or PI Xiap: IC50"}, "[3]": {"target": "BIR3 domain of human cIAP-1 (residues 267-363) (Homo sapiens (Human), UniProt Q13490)", "experiment": "cIAP-1 in vitro competitive displacement binding assay (fluorescence polarization; Probe A AVPIK(5&6FAM)-amide or Probe B AbuRPFK(5&6FAM)-amide)"}, "[4]": {"settings": "EVSA-T, 72 hours, Alamar Blue, read-out: EVSA-T prolif (EC50)"}, "[5]": {"settings": "Probe A AVPIK(5&6FAM)-amide, read-out: IC50 or PI cIAP1: IC50"}, "[6]": {"settings": "Probe B AbuRPFK(5&6FAM)-amide, read-out: IC50 or PI cIAP1: IC50"}, "[7]": {"settings": "read-out: IC50 or PI cIAP1: IC50"}, "[8]": {"settings": "EVSA-T, 72 h, read-out: EVSA-T prolif (EC50)"}, "[9]": {"settings": "3 h, Probe B, @ 0.012 μM, read-out: IC50 or PI cIAP1: PI"}, "[10]": {"settings": "3 h, read-out: IC50 or PI cIAP1: PI"}}, "note": "Where a name gives a salt, the structure may show the parent alone. Read-outs that look alike come from different tables or passages of the source.", "data": [{"smiles": "COC[C@H]1CN[C@H](C)CN1CC(=O)N1CC(C)(c2ccccc2)c2ccc(C#N)cc21", "note": "(mixture of isomers) [Example 136, 1-{2-[(2R,5R)-2-(Methoxymethyl)-5-methylpiperazin-1-yl]acetyl}-3-methyl-3-phenyl-2,3-dihydro-1H-indole-6-carbonitrile]", "values": [{"measurement": "EC50", "setting": "[1]; [4]", "value": 2800, "unit": "nM"}, {"measurement": "IC50", "setting": "[2]", "value": 110, "unit": "nM"}]}, {"smiles": "C[C@@H]1CN(CC(=O)N2CCc3cc(=O)n(Cc4ccccc4)cc32)CCN1.Cl", "note": "[Example 39, 6-Benzyl-1-[2-((R)-3-methyl-piperazin-1-yl)-acetyl]-1,2,3,6-tetrahydro-pyrrolo[2,3-c]pyridin-5-one hydrochloride salt]", "values": [{"measurement": "EVSA-T prolif: % inhibition", "setting": "[1]; concentration not printed (cell truncated)", "value": "−15", "unit": "% at"}, {"measurement": "inhibition at 1 µM", "setting": "[3]; 3 h, Probe A, @ 1 μM, read-out: IC50 or PI cIAP1: PI", "value": 46, "unit": "%"}, {"measurement": "inhibition at 3 µM", "setting": "[2]; 1 h, @ 3 μM, read-out: IC50 or PI Xiap: PI", "value": 55, "unit": "%"}]}, {"smiles": "C[C@@H]1CN(CC(=O)N2CC(C)(C)c3ccc(Cl)cc32)[C@@H](CO)CN1", "note": "[Example 40, 1-(6-Chloro-3,3-dimethyl-2,3-dihydro-indol-1-yl)-2-((2R,5R)-2-hydroxymethyl-5-methyl-piperazin-1-yl)-ethanone hydrochloride salt]", "values": [{"measurement": "inhibition at 10 µM", "setting": "[1]; EVSA-T, at 10 μM", "value": 45, "unit": "%"}, {"measurement": "IC50", "setting": "[3]", "value": "< 1000", "unit": "nM"}, {"measurement": "IC50", "setting": "[3]; [5]", "value": 820, "unit": "nM"}, {"measurement": "IC50", "setting": "[2]", "value": 960, "unit": "nM"}]}, {"smiles": "C[C@@H]1CN(CC(=O)N2CCc3cc(F)c(S(=O)(=O)c4ccccc4)cc32)CCN1", "note": "[Example 41, 1-(6-Benzenesulfonyl-5-fluoro-2,3-dihydro-indol-1-yl)-2-((R)-3-methyl-piperazin-1-yl)-ethanone]", "values": [{"measurement": "EC50", "setting": "[1]; [4]", "value": 5700, "unit": "nM"}, {"measurement": "IC50", "setting": "[3]; [5]", "value": 1300, "unit": "nM"}, {"measurement": "IC50", "setting": "[2]", "value": 470, "unit": "nM"}]}, {"smiles": "C[C@@H]1CN(CC(=O)N2CC(C)(C)c3ccc(S(=O)(=O)c4ccccc4)cc32)CCN1", "note": "[Example 43, 1-(6-Benzenesulfonyl-3,3-dimethyl-2,3-dihydro-indol-1-yl)-2-((R)-3-methyl-piperazin-1-yl)-ethanone hydrochloride salt]", "values": [{"measurement": "EC50", "setting": "[1]; [4]", "value": 2400, "unit": "nM"}, {"measurement": "IC50", "setting": "[3]; [5]", "value": 450, "unit": "nM"}, {"measurement": "IC50", "setting": "[2]", "value": 640, "unit": "nM"}]}, {"smiles": "CC(=O)NC[C@H]1CN[C@H](C)CN1CC(=O)N1CC(C)(C)c2ccc(Cl)cc21", "note": "[Example 45, N-{(2R,5R)-1-[2-(6-Chloro-3,3-dimethyl-2,3-dihydro-indol-1-yl)-2-oxo-ethyl]-5-methyl-piperazin-2-ylmethyl}-acetamide hydrochloride salt]", "values": [{"measurement": "EC50", "setting": "[1]; [4]", "value": 5200, "unit": "nM"}, {"measurement": "IC50", "setting": "[3]; [6]", "value": 580, "unit": "nM"}, {"measurement": "IC50", "setting": "[2]", "value": 1100, "unit": "nM"}]}, {"smiles": "C[C@@H]1CN(CC(=O)N2CC(C)(C)c3cc(F)c(S(=O)(=O)N4CCCC4)cc32)CCN1", "note": "[Example 49, 1-[5-Fluoro-3,3-dimethyl-6-(pyrrolidine-1-sulfonyl)-2,3-dihydro-indol-1-yl]-2-((R)-3-methyl-piperazin-1-yl)-ethanone dihydrochloride salt]", "values": [{"measurement": "inhibition at 10 µM", "setting": "[1]; EVSA-T", "value": 2, "unit": "%"}, {"measurement": "IC50", "setting": "[3]; [7]", "value": 4100, "unit": "nM"}, {"measurement": "IC50", "setting": "[2]", "value": 640, "unit": "nM"}]}, {"smiles": "COC[C@H]1CN[C@H](C)CN1CC(=O)N1C[C@](C)(c2ccccc2)c2ccc(C#N)cc21", "note": "[Example 140, (3R)-1-{2-[(2R,5R)-2-(Methoxymethyl)-5-methylpiperazin-1-yl]acetyl}-3-methyl-3-phenyl-2,3-dihydro-1H-indole-6-carbonitrile]", "values": [{"measurement": "EC50", "setting": "[1]; EVSA-T cell line, 72 hours, Alamar Blue, read-out: EC50, inhibition of cell growth", "value": "< 10000", "unit": "nM"}, {"measurement": "EC50", "setting": "[1]; [4]", "value": 8600, "unit": "nM"}, {"measurement": "IC50", "setting": "[2]", "value": 94, "unit": "nM"}]}, {"smiles": "Cc1cnn(C[C@H]2CN[C@H](C)CN2CC(=O)N2CC(C)(C)c3cnc(Cc4ccccc4)cc32)c1", "note": "[Example 147, 1-{6-Benzyl-3,3-dimethyl-1H,2H,3H-pyrrolo[3,2-c]pyridin-1-yl}-2-[(2R,5R)-5-methyl-2-[(4-methyl-1H-pyrazol-1-yl)methyl]piperazin-1-yl]ethan-1-one hydrochloride]", "values": [{"measurement": "EC50", "setting": "[1]; [8]", "value": 110, "unit": "nM"}, {"measurement": "inhibition at 0.04 µM", "setting": "[2]; 1 h, @ 0.04 μM, read-out: IC50 or PI Xiap: PI", "value": 49, "unit": "%"}]}, {"smiles": "C[C@@H]1CN(CC(=O)N2CC(C)(C)c3cnc(Cc4ccc(F)cc4F)cc32)[C@@H](CN2CCCC2=O)CN1", "note": "[Example 179, 1-{[(2R,5R)-1-(2-{6-[(2,4-Difluorophenyl)methyl]-3,3-dimethyl-1H,2H,3H-pyrrolo[3,2-c]pyridin-1-yl}-2-oxoethyl)-5-methylpiperazin-2-yl]methyl}pyrrolidin-2-one hydrochloride]", "values": [{"measurement": "EC50", "setting": "[1]; [8]", "value": 4.4, "unit": "nM"}, {"measurement": "inhibition at […]", "setting": "[3]; [9]", "value": 97, "unit": "%"}]}, {"smiles": "C[C@@H]1CN(CC(=O)N2CC(C)(C)c3cnc(C(C)(F)F)cc32)[C@@H](CN2CCCC2=O)CN1", "note": "[Example 184, dihydrochloride]", "values": [{"measurement": "EC50", "setting": "[1]; [8]", "value": 650, "unit": "nM"}, {"measurement": "IC50", "setting": "[3]", "value": "< 1000", "unit": "nM"}, {"measurement": "IC50", "setting": "[3]; [6]", "value": 31, "unit": "nM"}]}, {"smiles": "CCC(F)(F)c1cnc2c(c1)N(C(=O)CN1C[C@@H](C)NC[C@@H]1CN1CCCC1=O)CC2(C)C", "note": "[Example 190, 1-{[(2R,5R)-1-{2-[6-(1,1-Difluoropropyl)-3,3-dimethyl-1H,2H,3H-pyrrolo[3,2-b]pyridin-1-yl]-2-oxoethyl}-5-methylpiperazin-2-yl]methyl}pyrrolidin-2-one hydrochloride]", "values": [{"measurement": "EC50", "setting": "[1]; [8]", "value": 400, "unit": "nM"}, {"measurement": "IC50", "setting": "[3]; [7]", "value": 29, "unit": "nM"}]}, {"smiles": "C[C@@H]1CN(CC(=O)N2CC(C)(C)c3ncc(Cc4ccc(F)cc4F)cc32)[C@@H](CN2CCCC2=O)CN1", "note": "[Example 199, 1-{[(2R,5R)-1-(2-{6-[(2,4-Difluorophenyl)methyl]-3,3-dimethyl-1H,2H,3H-pyrrolo[3,2-b]pyridin-1-yl}-2-oxoethyl)-5-methylpiperazin-2-yl]methyl}pyrrolidin-2-one dihydrochloride]", "values": [{"measurement": "EC50", "setting": "[1]; [8]", "value": 5.6, "unit": "nM"}, {"measurement": "IC50", "setting": "[2]", "value": 63, "unit": "nM"}]}, {"smiles": "CC(C)CC(F)(F)c1cnc2c(c1)N(C(=O)CN1C[C@@H](C)NC[C@@H]1CN1CCCC1=O)CC2(C)C", "note": "[Example 216, 1-{[(2R,5R)-1-{2-[6-(1,1-Difluoro-3-methylbutyl)-3,3-dimethyl-1H,2H,3H-pyrrolo[3,2-b]pyridin-1-yl]-2-oxoethyl}-5-methylpiperazin-2-yl]methyl}pyrrolidin-2-one dihydrochloride]", "values": [{"measurement": "EC50", "setting": "[1]; [8]", "value": 51, "unit": "nM"}, {"measurement": "inhibition at […]", "setting": "[3]; [10]", "value": 68, "unit": "%"}]}, {"smiles": "C[C@@H]1CN(CC(=O)N2CC(C)(C)c3ncc(Cc4ccc(F)cc4)cc32)[C@@H](CN2CCOCC2)CN1", "note": "[Example 234, 1-{6-[(4-Fluorophenyl)methyl]-3,3-dimethyl-1H,2H,3H-pyrrolo[3,2-b]pyridin-1-yl}-2-[(2R,5R)-5-methyl-2-(morpholin-4-ylmethyl)piperazin-1-yl]ethan-1-one dihydrochloride]", "values": [{"measurement": "EC50", "setting": "[1]; [8]", "value": 9.6, "unit": "nM"}, {"measurement": "IC50", "setting": "[2]", "value": 74, "unit": "nM"}]}, {"smiles": "CCCC(F)(F)c1cnc2c(c1)N(C(=O)CN1C[C@@H](C)NC[C@@H]1CN1CCOCC1)CC2(C)C", "note": "[Example 238, 1-[6-(1,1-Difluorobutyl)-3,3-dimethyl-1H,2H,3H-pyrrolo[3,2-b]pyridin-1-yl]-2-[(2R,5R)-5-methyl-2-(morpholin-4-ylmethyl)piperazin-1-yl]ethan-1-one hydrochloride]", "values": [{"measurement": "EC50", "setting": "[1]; [8]", "value": 68, "unit": "nM"}, {"measurement": "inhibition at […]", "setting": "[3]; [9]", "value": 69, "unit": "%"}]}, {"smiles": "C[C@@H]1CN(CC(=O)N2CC(C)(C)c3ncc(Cc4ccc(F)cc4)cc32)[C@@H](CN2CC[C@@H](F)C2)CN1", "note": "[Example 241, 1-{6-[(4-Fluorophenyl)methyl]-3,3-dimethyl-1H,2H,3H-pyrrolo[3,2-b]pyridin-1-yl}-2-[(2R,5R)-2-{[(3R)-3-fluoropyrrolidin-1-yl]methyl}-5-methylpiperazin-1-yl]ethan-1-one dihydrochloride]", "values": [{"measurement": "EC50", "setting": "[1]; [8]", "value": 7.2, "unit": "nM"}, {"measurement": "inhibition at […]", "setting": "[3]; [10]", "value": 98, "unit": "%"}]}, {"smiles": "C[C@@H]1CN(CC(=O)N2CC(C)(C)c3ncc(Cc4ccccc4F)cc32)[C@@H](CN2CC[C@@H](F)C2)CN1", "note": "[Example 250, 1-{6-[(2-Fluorophenyl)methyl]-3,3-dimethyl-1H,2H,3H-pyrrolo[3,2-b]pyridin-1-yl}-2-[(2R,5R)-2-{[(3R)-3-fluoropyrrolidin-1-yl]methyl}-5-methylpiperazin-1-yl]ethan-1-one dihydrochloride]", "values": [{"measurement": "EC50", "setting": "[1]; [8]", "value": 16, "unit": "nM"}, {"measurement": "inhibition at […]", "setting": "[3]; [10]", "value": 89, "unit": "%"}]}]}
